Experimental data from patent US5869448A, “Cyclic CS-1 peptidomimetics, compositions and methods of using same” (Cytel Corporation, priority 1995, dated 1999).
Positions of bridges follow the written chain, without caps; N, C: chain ends. Non-standard residues stand in square brackets, D forms with d. Residues, ends and D or L forms follow the SMILES beside them. *: point of attachment. Pen = CC(C)(S)[C@H](N)C(=O)O; PhAc = O=C(Cc1ccccc1)*

The molecules below were run against T1, VLA-4/CS-1 (Homo sapiens, UniProt P05556+P13612) (assay: In vitro inhibition of binding of 51Cr-labeled Jurkat cells to solid phase-bound CS-1 peptide). Settings: Table 1; normalized IC50, standard peptide of SEQ ID NO:6 = 1.
T1 construct: inflammatory cells that contain the VLA-4 receptor [Jurkat cells; host or cells: Jurkat (human T lymphoblastic line)
T1 sequence (P13612 34-1032): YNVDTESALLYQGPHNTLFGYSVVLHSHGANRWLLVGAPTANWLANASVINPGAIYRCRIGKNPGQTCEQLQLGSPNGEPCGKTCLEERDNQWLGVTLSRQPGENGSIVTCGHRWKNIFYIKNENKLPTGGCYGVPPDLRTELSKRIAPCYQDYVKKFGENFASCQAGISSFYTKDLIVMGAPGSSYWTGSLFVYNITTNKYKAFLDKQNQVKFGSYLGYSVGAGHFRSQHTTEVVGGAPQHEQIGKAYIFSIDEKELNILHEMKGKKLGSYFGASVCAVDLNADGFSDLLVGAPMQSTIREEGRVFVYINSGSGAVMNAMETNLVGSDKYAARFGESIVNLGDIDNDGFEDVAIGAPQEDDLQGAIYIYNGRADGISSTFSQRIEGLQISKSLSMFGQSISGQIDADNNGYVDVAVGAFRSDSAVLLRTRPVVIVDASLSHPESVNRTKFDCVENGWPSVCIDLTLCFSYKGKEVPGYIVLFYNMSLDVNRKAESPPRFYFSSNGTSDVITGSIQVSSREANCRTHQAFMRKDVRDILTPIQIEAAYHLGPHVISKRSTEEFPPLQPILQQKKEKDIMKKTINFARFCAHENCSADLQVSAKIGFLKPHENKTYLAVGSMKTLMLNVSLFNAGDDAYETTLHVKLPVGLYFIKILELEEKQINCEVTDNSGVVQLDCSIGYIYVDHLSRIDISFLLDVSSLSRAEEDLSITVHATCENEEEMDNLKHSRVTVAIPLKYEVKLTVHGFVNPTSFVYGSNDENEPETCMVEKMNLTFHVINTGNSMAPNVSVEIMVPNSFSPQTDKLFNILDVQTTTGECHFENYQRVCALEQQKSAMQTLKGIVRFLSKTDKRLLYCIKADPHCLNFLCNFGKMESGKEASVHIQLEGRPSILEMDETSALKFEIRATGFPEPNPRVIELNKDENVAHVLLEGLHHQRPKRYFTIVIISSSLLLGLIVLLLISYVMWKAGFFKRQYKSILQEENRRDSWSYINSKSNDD
T1 sequence (P05556 21-798): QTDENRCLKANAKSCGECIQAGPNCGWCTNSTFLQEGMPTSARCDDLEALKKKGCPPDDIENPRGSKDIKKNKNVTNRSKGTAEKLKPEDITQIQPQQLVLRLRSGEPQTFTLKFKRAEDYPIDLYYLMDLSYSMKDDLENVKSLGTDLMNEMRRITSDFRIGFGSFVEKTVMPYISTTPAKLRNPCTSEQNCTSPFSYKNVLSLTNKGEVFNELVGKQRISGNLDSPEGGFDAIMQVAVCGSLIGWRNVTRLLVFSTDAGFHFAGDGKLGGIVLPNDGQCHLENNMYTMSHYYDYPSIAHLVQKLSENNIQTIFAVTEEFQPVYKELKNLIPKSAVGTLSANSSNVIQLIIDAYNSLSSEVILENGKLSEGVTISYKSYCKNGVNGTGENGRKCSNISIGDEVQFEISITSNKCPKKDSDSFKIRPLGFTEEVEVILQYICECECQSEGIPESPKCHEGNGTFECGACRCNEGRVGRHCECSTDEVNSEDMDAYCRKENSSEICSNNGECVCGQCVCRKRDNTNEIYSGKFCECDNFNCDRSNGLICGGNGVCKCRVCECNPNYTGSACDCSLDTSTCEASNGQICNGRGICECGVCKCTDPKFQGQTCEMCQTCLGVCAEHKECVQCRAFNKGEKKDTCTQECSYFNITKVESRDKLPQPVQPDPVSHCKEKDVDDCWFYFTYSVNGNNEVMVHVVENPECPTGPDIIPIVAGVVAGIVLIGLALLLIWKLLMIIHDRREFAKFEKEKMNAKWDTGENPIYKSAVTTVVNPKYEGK
Format: cell-based
Experimental: Binding inhibition is measured here as a concentration of peptide that inhibits one-half the binding between a standard number of Jurkat cells and a standard amount of CS-1 peptide bound to the surface of a microtiter plate well. Those concentrations are conveniently expressed as IC50 values, smaller numbers indicating a lower concentration required to inhibit 50 percent binding and therefore greater potency. Further specifics of this assay are provided hereinafter.
Jurkat cells (ATCC TIB 152), a human T lymphoblastic line, labeled with ^51 chromium were used to assay in vitro binding inhibition provided by various peptides discussed herein.
The plates were prepared as follows: The 25-mer CS-1 peptide (SEQ ID NO:5) dissolved at 0.5-1 μg/ml in a buffer of 0.1M NaHCO3 at pH 9.5 that also contained 10 μg/ml of bovine serum albumin (BSA) or a conjugate of the CS-1 peptide linked to ovalbumin (CS-1-OVA) dissolved at 1-2.5 μg/ml in the same buffer was used as the substrate. Each well of the microtiter plates was coated with 50 μl of substrate or buffer alone for controls. The wells were permitted to dry out completely and were then rinsed twice with PBS at pH 7.4. Non-specific binding sites of each well were then blocked using 200 μl per well of RPMI/1 percent BSA for two hours at room temperature. Both solid phase-affixed substrates provided similar results.
Jurkat cells (3-5×10^6 cells) were placed into a 15 ml FALCON™ round-bottom tube with a cap. The tube was centrifuged, and the extra medium was then removed.
Two hundred microliters of a ^51 Cr labeling solution were added to the centrifuged cells and maintained in contact with the cells for 90-120 minutes in a warm room. This procedure typically provides about 50,000-100,000 cpm/well with about 80-100 percent cell viability. Longer contact times provide a greater amount of labeling but lower cell viability.
The labeled cells were washed with (i) complete medium, (ii) 1 mM EDTA/PBS and then (iii) RPM1/1 percent BSA free of serum components. The cells were centrifuged after each washing. The cells were finally resuspended in serum-free RPMI/1 percent BSA at a concentration of 1×10^6 viable cells/ml, which provides a concentration that is diluted by one-half in the assay.
Cyclic inhibitor peptides were prepared as stock solutions at 20 mg/ml in DMSO in 1.5 ml cryogenic screwcap vials, and were stored at -70° C. Using FLOW™ round-bottom or V-bottom microtiter plates, the inhibitor peptides were prepared at twice the assay concentration in RPMI/1 percent BSA at 60 μl/well.
Four initial dilutions were typically used.
The ^51 Cr-labeled cells (1×10^6 cells at 60 μl/well) were then admixed with the diluted cyclic peptide solutions. The admixtures were maintained at room temperature (about 22° C.) for 30 minutes.
One hundred microliters of each inhibitor peptide/cell admixture were transferred to the substrate-coated wells. This was done in triplicate for each dilution. The resulting plates were incubated for 30 minutes at 37° C. and then washed gently three times with RPMI/1 percent BSA at 200 μl/well. Binding was observed microscopically, particularly after the second wash.
The bound cells were then lysed by the addition of a 0.5 percent solution of sodium dodecylsulfate in water at 100 μl/well. The resulting solutions were then processed for counting and calculation of IC50 values following usual procedures. Appropriate positive and negative controls were used with each plate so that the results of separate assays could be normalized and compared.
The potency data of Table 1 and Table 2 are so normalized. The absolute IC50 value for the peptide of SEQ ID NO:7 is 0.3 μM.

Compound | Relative Potency
O=C(O)C[C@@H]1NC(=O)[C@@H](NC(=O)Cc2ccccc2)CSCCNC(=O)[C@H](Cc2ccccc2)NC1=O [.phi.AcCDF--NHCH2 CH2 --] | 16
CC(=O)N[C@@H](CC(C)C)C(=O)N[C@@H](CC(=O)O)C(=O)N[C@@H](Cc1ccccc1)C(N)=O [AcLDF--NH2] (Ac-Leu-Asp-Phe-NH2) | < 1
CC(=O)N[C@@H](CC(C)C)C(=O)N[C@@H](CC(=O)O)C(=O)N[C@H](C(N)=O)C(C)C [AcLDV--NH2, reference compound] (Ac-Leu-Asp-Val-NH2) | < 1
CC(C)C[C@H](N)C(=O)N[C@@H](CC(=O)O)C(=O)N[C@@H](Cc1ccccc1)C(N)=O [LDF--NH2] (H-Leu-Asp-Phe-NH2) | 0
CC(C)C[C@H](N)C(=O)N[C@@H](CC(=O)O)C(=O)N[C@H](C(N)=O)C(C)C [LDV--NH2, reference compound] (H-Leu-Asp-Val-NH2) | 0
NC(=O)[C@@H]1CSSC[C@H](NC(=O)Cc2ccccc2)C(=O)N[C@@H](CC(=O)O)C(=O)N[C@@H](Cc2ccccc2)C(=O)N1 [compound 7] (PhAc-CDFC-NH2; disulfide 1-4) | 954
CC1(C)SSC[C@@H](C(N)=O)NC(=O)[C@H](Cc2ccccc2)NC(=O)[C@H](CC(=O)O)NC(=O)[C@H]1NC(=O)Cc1ccccc1 [compound 14] (PhAc-[Pen]DFC-NH2; disulfide 1-4) | 94

Next, values leading:

Relative Potency | Compound
81 | CC(C)C[C@@H]1NC(=O)[C@H](Cc2ccccc2)NC(=O)[C@@H](N)CSSC[C@@H](C(N)=O)NC(=O)[C@H]([C@@H](C)O)NC(=O)[C@H](CO)NC(=O)[C@@H]2CCCN2C(=O)[C@H](Cc2ccccc2)NC(=O)[C@H](CC(=O)O)NC1=O [compound 15] (H-CFLDFPSTC-NH2; disulfide 1-9)
31 | CC(C)C[C@@H]1NC(=O)[C@H](Cc2ccccc2)NC(=O)[C@H](CCC(=O)O)NC(=O)[C@@H]2CCCN2C(=O)[C@@H](N)CSSC[C@@H](C(N)=O)NC(=O)[C@@H]2CCCN2C(=O)[C@H](Cc2ccccc2)NC(=O)[C@H](CC(=O)O)NC1=O [compound 16] (H-CPEFLDFPC-NH2; disulfide 1-9)
53 | CC(=O)N[C@@H](Cc1ccccc1)C(=O)N[C@H]1CSSC[C@@H](C(N)=O)NC(=O)[C@H](Cc2ccccc2)NC(=O)[C@H](CC(=O)O)NC1=O [compound 17] (Ac-FCDFC-NH2; disulfide 2-5)
41 | CC(=O)N[C@@H](Cc1ccccc1)C(=O)N[C@@H](CS)C(=O)N[C@@H](CC(=O)O)C(=O)N[C@@H](Cc1ccccc1)C(=O)N[C@@H](CS)C(N)=O [compound 18] (Ac-FCDFC-NH2)
6 | CC(C)C[C@@H]1NC(=O)[C@H](Cc2ccccc2)NC(=O)[C@H](CCC(=O)O)NC(=O)[C@@H]2CCCN2C(=O)[C@@H](N)CSSC[C@@H](C(N)=O)NC(=O)[C@H](CO)NC(=O)[C@@H]2CCCN2C(=O)[C@H](Cc2ccccc2)NC(=O)[C@H](CC(=O)O)NC1=O [compound 19] (H-CPEFLDFPSC-NH2; disulfide 1-10)
19 | CC(C)C[C@@H]1NC(=O)[C@H](Cc2ccccc2)NC(=O)[C@H](CCC(=O)O)NC(=O)[C@@H](N)CSSC[C@@H](C(N)=O)NC(=O)[C@@H]2CCCN2C(=O)[C@H](Cc2ccccc2)NC(=O)[C@H](CC(=O)O)NC1=O [compound 20] (H-CEFLDFPC-NH2; disulfide 1-8)
19 | CC(C)C[C@@H]1NC(=O)[C@H](Cc2ccccc2)NC(=O)[C@@H](N)CSSC[C@@H](C(N)=O)NC(=O)[C@H](C(C)C)NC(=O)[C@H]([C@@H](C)O)NC(=O)[C@H](CO)NC(=O)[C@@H]2CCCN2C(=O)[C@H](Cc2ccccc2)NC(=O)[C@H](CC(=O)O)NC1=O [compound 21] (H-CFLDFPSTVC-NH2; disulfide 1-10)
9 | CC(C)C[C@@H]1NC(=O)[C@H](Cc2ccccc2)NC(=O)[C@H](CCC(=O)O)NC(=O)[C@@H](N)CSSC[C@@H](C(N)=O)NC(=O)[C@H]([C@@H](C)O)NC(=O)[C@H](CO)NC(=O)[C@@H]2CCCN2C(=O)[C@H](Cc2ccccc2)NC(=O)[C@H](CC(=O)O)NC1=O [compound 22] (H-CEFLDFPSTC-NH2; disulfide 1-10)
9 | CC(C)C[C@@H]1NC(=O)[C@H](Cc2ccccc2)NC(=O)[C@H](CCC(=O)O)NC(=O)[C@@H]2CCCN2C(=O)CNC(=O)[C@@H](N)CSSC[C@@H](C(N)=O)NC(=O)[C@H](Cc2ccccc2)NC(=O)[C@H](CC(=O)O)NC1=O [compound 23] (H-CGPEFLDFC-NH2; disulfide 1-9)
6 | CC(C)C[C@@H]1NC(=O)[C@H](Cc2ccccc2)NC(=O)[C@H](CCC(=O)O)NC(=O)[C@@H](N)CSSC[C@@H](C(N)=O)NC(=O)[C@H](CO)NC(=O)[C@@H]2CCCN2C(=O)[C@H](Cc2ccccc2)NC(=O)[C@H](CC(=O)O)NC1=O [compound 24] (H-CEFLDFPSC-NH2; disulfide 1-9)
3 | NC(=O)[C@@H]1CSSC[C@H](NC(=O)[C@@H](N)Cc2ccccc2)C(=O)N[C@@H](CC(=O)O)C(=O)N[C@@H](Cc2ccccc2)C(=O)N1 [compound 25] (H-FCDFC-NH2; disulfide 2-5)
1 | CC(C)C[C@@H]1NC(=O)[C@@H](N)CSSC[C@@H](C(N)=O)NC(=O)[C@H](Cc2ccccc2)NC(=O)[C@H](CC(=O)O)NC1=O [compound 28] (H-CLDFC-NH2; disulfide 1-5)
1 | CC(=O)N[C@@H](Cc1ccccc1)C(=O)N[C@H]1CSSC[C@@H](C(=O)N2CCC[C@H]2C(N)=O)NC(=O)[C@H](CC(=O)O)NC1=O [compound 29] (Ac-FCDCP-NH2; disulfide 2-4)

Same assay, conditions: Table 2; normalized, relative to standard peptide of SEQ ID NO:6

Compound | Relative Potency
CC(=O)N[C@H]1CSSC[C@@H](C(=O)N2CCC[C@@H]2C(N)=O)NC(=O)[C@H](CC(=O)O)NC(=O)[C@H](CC(C)C)NC1=O (Ac-CLDC[dP]-NH2; disulfide 1-4) | 0
CC(=O)N[C@H]1CSSC[C@@H](C(N)=O)NC(=O)[C@H](Cc2ccccc2)NC(=O)[C@H](CC(=O)O)NC(=O)[C@H](CC(C)C)NC1=O (Ac-CLDFC-NH2; disulfide 1-5) | .91
CC(C)C[C@@H]1NC(=O)[C@H](Cc2ccccc2)NC(=O)[C@@H](N)CSSC[C@@H](C(=O)N2CCC[C@H]2C(N)=O)NC(=O)[C@H](CC(=O)O)NC1=O (H-CFLDCP-NH2; disulfide 1-5) | 0
CC(C)C[C@@H]1NC(=O)[C@H](Cc2ccccc2)NC(=O)[C@H](CCC(=O)O)NC(=O)[C@@H]2CCCN2C(=O)[C@@H](N)CSSC[C@@H](C(N)=O)NC(=O)[C@H](Cc2ccccc2)NC(=O)[C@H](CC(=O)O)NC1=O (H-CPEFLDFC-NH2; disulfide 1-8) | 56.3
O=C(O)C[C@@H]1NC(=O)[C@@H](NC(=O)Cc2ccccc2)CSCCNC(=O)[C@H](Cc2ccccc2)NC1=O [.phi.AcCDF--NHCH2 CH2 --] | 16.1
CC(C)C[C@@H]1NC(=O)[C@H](Cc2ccccc2)NC(=O)[C@@H](N)CSSC[C@@H](C(N)=O)NC(=O)[C@H]([C@@H](C)O)NC(=O)[C@H](CO)NC(=O)[C@@H]2CCCN2C(=O)[C@H](Cc2ccccc2)NC(=O)[C@H](CC(=O)O)NC1=O [SEQ ID NO:15, CFLDFPSTC--NH2] (H-CFLDFPSTC-NH2; disulfide 1-9) | 81.4

Same assay, conditions: XLDFp = 1

Compound | CS-1 binding inhibition potencies relative to each other
CC(C)C[C@H](NC(=O)Cc1ccccc1)C(=O)N[C@@H](CC(=O)O)C(=O)N[C@@H](Cc1ccccc1)C(=O)N1CCC[C@@H]1C(N)=O [XLDFp, .phi.Ac-LeuAspPhe-D-Pro-NH2, reference compound] (PhAc-LDF[dP]-NH2) | ~1

Same assay, conditions: times more potent than standard 10-mer

Compound | inhibition potency relative to the Standard 10-mer of SEQ ID NO:6
CC(=O)N[C@@H](CC(C)C)C(=O)N[C@@H](CC(=O)O)C(=O)N[C@H](C(N)=O)C(C)C [AcLDV--NH2, reference compound] (Ac-Leu-Asp-Val-NH2) | about 1
CC(C)C[C@H](N)C(=O)N[C@@H](CC(=O)O)C(=O)N[C@H](C(N)=O)C(C)C [LDV--NH2, reference compound] (H-Leu-Asp-Val-NH2) | zero
CC(C)C[C@@H]1NC(=O)[C@H](Cc2ccccc2)NC(=O)[C@@H](N)CSSC[C@@H](C(N)=O)NC(=O)[C@@H]2CCCN2C(=O)[C@H](Cc2ccccc2)NC(=O)[C@H](CC(=O)O)NC1=O [SEQ ID NO:10, CFLDFPC--NH2] (H-CFLDFPC-NH2; disulfide 1-7) | about 253
CC(C)C[C@H](NC(=O)Cc1ccccc1)C(=O)N[C@@H](CC(=O)O)C(=O)N[C@@H](Cc1ccccc1)C(=O)N1CCC[C@@H]1C(N)=O [XLDFp, .phi.Ac-LeuAspPhe-D-Pro-NH2, reference compound] (PhAc-LDF[dP]-NH2) | ~313
